Tests used:
Assay in all cases: relative viability (nuclei count vs DMSO), 5 days (fraction); higher = more cells survive
A-427 = system: A-427
In short: (§1)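 Lung cancer cell lines were pin-tool dosed in 1536-well plates on the day after seeding, with either a lone drug or a fixed anchor-drug dose plus five library-drug doses (not always all listed) in √10 steps. Nuclei were counted on 4× images after 5 days. Relative viability is the ratio of treated-well to vehicle-well nuclei counts, with each value a median of duplicate plates.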

ABC-1 = system: ABC-1
In short: as §1

COR-L23 = system: COR-L23
In short: as §1

ChaGo-K-1 = system: ChaGo-K-1
In short: as §1

EMC-BAC-2 = system: EMC-BAC-2
In short: as §1

HARA = system: HARA
In short: as §1

HCC-15 = system: HCC-15
In short: as §1

HCC-366 = system: HCC-366
In short: as §1

HCC-78 = system: HCC-78
In short: as §1

LC-2-ad = system: LC-2-ad
In short: as §1

NCI-H1734 = system: NCI-H1734
In short: as §1

NCI-H1793 = system: NCI-H1793
In short: as §1

NCI-H1944 = system: NCI-H1944
In short: as §1

NCI-H1993 = system: NCI-H1993
In short: as §1

NCI-H2009 = system: NCI-H2009
In short: as §1

NCI-H2023 = system: NCI-H2023
In short: as §1

NCI-H2126 = system: NCI-H2126
In short: as §1

NCI-H2228 = system: NCI-H2228
In short: as §1

NCI-H23 = system: NCI-H23
In short: as §1

NCI-H2405 = system: NCI-H2405
In short: as §1

NCI-H838 = system: NCI-H838
In short: as §1

SK-LU-1 = system: SK-LU-1
In short: as §1

UMC-11 = system: UMC-11
In short: as §1

CC1(C)CCC(c2ccc(Cl)cc2)=C(CN2CCN(c3ccc(C(=O)NS(=O)(=O)c4ccc(N[C@H](CCN5CCOCC5)CSc5ccccc5)c(S(=O)(=O)C(F)(F)F)c4)cc3)CC2)C1 [Navitoclax] + Cc1cc(Nc2cc(N3CCN(C)CC3)nc(Sc3ccc(NC(=O)C4CC4)cc3)n2)n[nH]1 [Tozasertib] (partner 0.1 µM)
relative viability (A-427; first compound 0.005 µM): 0.199
relative viability (A-427; first compound 0.01581 µM): 0.192
relative viability (A-427; first compound 0.05 µM): 0.161
relative viability (A-427; first compound 0.1581 µM): 0.197
relative viability (A-427; first compound 0.5 µM): 0.213
relative viability (ABC-1; first compound 0.005 µM): 0.158
relative viability (ABC-1; first compound 0.01581 µM): 0.19
relative viability (ABC-1; first compound 0.05 µM): 0.144
relative viability (ABC-1; first compound 0.1581 µM): 0.164
relative viability (ABC-1; first compound 0.5 µM): 0.141
relative viability (COR-L23; first compound 0.005 µM): 0.236
relative viability (COR-L23; first compound 0.01581 µM): 0.197
relative viability (COR-L23; first compound 0.05 µM): 0.172
relative viability (COR-L23; first compound 0.1581 µM): 0.198
relative viability (COR-L23; first compound 0.5 µM): 0.228
relative viability (ChaGo-K-1; first compound 0.005 µM): 0.238
relative viability (ChaGo-K-1; first compound 0.01581 µM): 0.225
relative viability (ChaGo-K-1; first compound 0.05 µM): 0.184
relative viability (ChaGo-K-1; first compound 0.1581 µM): 0.239
relative viability (ChaGo-K-1; first compound 0.5 µM): 0.216
relative viability (EMC-BAC-2; first compound 0.005 µM): 0.273
relative viability (EMC-BAC-2; first compound 0.01581 µM): 0.27
relative viability (EMC-BAC-2; first compound 0.05 µM): 0.243
relative viability (EMC-BAC-2; first compound 0.1581 µM): 0.273
relative viability (EMC-BAC-2; first compound 0.5 µM): 0.263
relative viability (HARA; first compound 0.005 µM): 0.0833
relative viability (HARA; first compound 0.01581 µM): 0.113
relative viability (HARA; first compound 0.1581 µM): 0.0955
relative viability (HARA; first compound 0.5 µM): 0.0891
relative viability (HCC-15; first compound 0.005 µM): 0.428
relative viability (HCC-15; first compound 0.01581 µM): 0.524
relative viability (HCC-15; first compound 0.05 µM): 0.449
relative viability (HCC-15; first compound 0.1581 µM): 0.481
relative viability (HCC-15; first compound 0.5 µM): 0.467
relative viability (HCC-366; first compound 0.005 µM): 0.109
relative viability (HCC-366; first compound 0.01581 µM): 0.11
relative viability (HCC-366; first compound 0.1581 µM): 0.118
relative viability (HCC-366; first compound 0.5 µM): 0.117
relative viability (HCC-78; first compound 0.005 µM): 0.403
relative viability (HCC-78; first compound 0.01581 µM): 0.594
relative viability (HCC-78; first compound 0.1581 µM): 0.584
relative viability (HCC-78; first compound 0.5 µM): 0.428
relative viability (LC-2-ad; first compound 0.005 µM): 0.455
relative viability (LC-2-ad; first compound 0.01581 µM): 0.544
relative viability (LC-2-ad; first compound 0.05 µM): 0.546
relative viability (LC-2-ad; first compound 0.1581 µM): 0.507
relative viability (LC-2-ad; first compound 0.5 µM): 0.343
relative viability (NCI-H1734; first compound 0.005 µM): 0.253
relative viability (NCI-H1734; first compound 0.01581 µM): 0.259
relative viability (NCI-H1734; first compound 0.1581 µM): 0.201
relative viability (NCI-H1734; first compound 0.5 µM): 0.194
relative viability (NCI-H1793; first compound 0.005 µM): 0.338
relative viability (NCI-H1793; first compound 0.01581 µM): 0.394
relative viability (NCI-H1793; first compound 0.1581 µM): 0.278
relative viability (NCI-H1793; first compound 0.5 µM): 0.275
relative viability (NCI-H1944; first compound 0.005 µM): 0.254
relative viability (NCI-H1944; first compound 0.01581 µM): 0.246
relative viability (NCI-H1944; first compound 0.05 µM): 0.241
relative viability (NCI-H1944; first compound 0.1581 µM): 0.259
relative viability (NCI-H1944; first compound 0.5 µM): 0.206
relative viability (NCI-H1993; first compound 0.005 µM): 0.596
relative viability (NCI-H1993; first compound 0.01581 µM): 0.666
relative viability (NCI-H1993; first compound 0.05 µM): 0.597
relative viability (NCI-H1993; first compound 0.1581 µM): 0.522
relative viability (NCI-H1993; first compound 0.5 µM): 0.595
relative viability (NCI-H2009; first compound 0.005 µM): 0.692
relative viability (NCI-H2009; first compound 0.01581 µM): 0.79
relative viability (NCI-H2009; first compound 0.05 µM): 0.713
relative viability (NCI-H2009; first compound 0.1581 µM): 0.769
relative viability (NCI-H2009; first compound 0.5 µM): 0.711
relative viability (NCI-H2023; first compound 0.005 µM): 0.384
relative viability (NCI-H2023; first compound 0.01581 µM): 0.32
relative viability (NCI-H2023; first compound 0.05 µM): 0.357
relative viability (NCI-H2023; first compound 0.1581 µM): 0.36
relative viability (NCI-H2023; first compound 0.5 µM): 0.244
relative viability (NCI-H2126; first compound 0.005 µM): 0.817
relative viability (NCI-H2126; first compound 0.01581 µM): 0.906
relative viability (NCI-H2126; first compound 0.05 µM): 0.858
relative viability (NCI-H2126; first compound 0.1581 µM): 0.823
relative viability (NCI-H2126; first compound 0.5 µM): 0.749
relative viability (NCI-H2228; first compound 0.005 µM): 0.343
relative viability (NCI-H2228; first compound 0.01581 µM): 0.296
relative viability (NCI-H2228; first compound 0.1581 µM): 0.285
relative viability (NCI-H2228; first compound 0.5 µM): 0.212
relative viability (NCI-H23; first compound 0.005 µM): 0.398
relative viability (NCI-H23; first compound 0.01581 µM): 0.353
relative viability (NCI-H23; first compound 0.05 µM): 0.336
relative viability (NCI-H23; first compound 0.1581 µM): 0.325
relative viability (NCI-H23; first compound 0.5 µM): 0.352
relative viability (NCI-H2405; first compound 0.005 µM): 0.761
relative viability (NCI-H2405; first compound 0.01581 µM): 0.787
relative viability (NCI-H2405; first compound 0.05 µM): 0.735
relative viability (NCI-H2405; first compound 0.1581 µM): 0.731
relative viability (NCI-H2405; first compound 0.5 µM): 0.681
relative viability (NCI-H838; first compound 0.005 µM): 0.295
relative viability (NCI-H838; first compound 0.01581 µM): 0.328
relative viability (NCI-H838; first compound 0.05 µM): 0.266
relative viability (NCI-H838; first compound 0.1581 µM): 0.266
relative viability (NCI-H838; first compound 0.5 µM): 0.292
relative viability (SK-LU-1; first compound 0.005 µM): 0.326
relative viability (SK-LU-1; first compound 0.01581 µM): 0.324
relative viability (SK-LU-1; first compound 0.05 µM): 0.308
relative viability (SK-LU-1; first compound 0.1581 µM): 0.318
relative viability (SK-LU-1; first compound 0.5 µM): 0.298
relative viability (UMC-11; first compound 0.005 µM): 0.196
relative viability (UMC-11; first compound 0.01581 µM): 0.184
relative viability (UMC-11; first compound 0.05 µM): 0.207
relative viability (UMC-11; first compound 0.1581 µM): 0.2
relative viability (UMC-11; first compound 0.5 µM): 0.188
